How the values were obtained:
[1] = system: caspase-6; experiment: Caspase-6 colorimetric assay in MOLT-4 cells; type: cell-based, Human; settings: 5 µg/ml, 24 hrs
Experimental: Caspase 3 activity was measured by using caspase-3 colorimetric Assay kit (R&D Systems USA). Briefly, MOLT-4 (∼2x10^6cells) were treated with Compound 3f, camptothecin (5µM) and staurosporine (1µM) for 24h, and then cell centrifuged and pellet was lysed using 50µL cell lysis buffer. Cell lysates were mixed with 10µL of dithiothreitol (DTT) and 50µL reaction buffer (2X) containing 5 µL DEVD-pNA, a caspase-3 substrate, and incubated upto 24 hr at 37°C. Additional controls were included in this assay containing no cell lysate without substrate Enzyme-catalyzed release of pNA was monitored using a microplate reader at 405 nm (Fig. 2). Likewise, Caspase 6 activity was also measured using caspase-6 colorimetric Assay kit (R&D Systems USA). However, the enzyme and enzyme substrate (VEID-pNA) were different (Fig. 3). Treatment of the cells with Compound 3f induced caspase-3/6 activities. […] (Fig 2).

[2] = system: MOLT-4 cells; experiment: Light and transmission electron microscopy of apoptosis; type: cell-based, Human
Experimental: Cell culture and treatment: Human T lymphoblast; acute lymphoblastic leukemia line MOLT-4 was procured from NCCS, Pune, India. The cells were cultured in RPMI-1640 medium supplemented with 10% FCS, 100 units penicillin and 100 µg streptomycin per ml. Cells were grown in CO2 incubator (SHEL-LAB, USA) at 37° C, 90% humidity and 5% CO2 gas environment and were treated during sub-confluent stage with Compound 3f dissolved in DMSO at the concentration of 1, 5 and 10µM while control cells received only the vehicle (DMSO < 0.5%).
Light and Transmission Electron Microscopy: MOLT-4 control, Compound 3f treated cells at different time intervals were washed in phosphate buffered saline, centrifuged at 1500 rpm for ten minutes and the pellets were divided into 1mm^3 pieces and fixed immediately in 2.5% glutaraldehyde in 0.1M phosphate buffer (pH 7.2) for 2 hr at 4°C, post-fixed with 1% OsO4 in the same buffer for 2 hr, dehydrated with acetone, cleared in propylene oxide and embedded in Epon-812^6 [Hayat, M. A. (1981) Principles and Techniques of Electron Microscopy. Biological Applications Vol. 1. Edward Arnold Publishers, London, U.K.] Semithin (1µm) sections were cut, stained with toluidine blue and studied under Olympus Research Microscope (VANOX). The photography was done using Olympus Digital Camera (C4000).
Ultrathin sections of silver colour (60-90 nm) were cut on a LKB ultramicrotome (Ultrotome-IV, mounted on copper grids and stained with uranyl acetate and lead citrate. The sections were viewed and photographed in a JEOL-100CXII electron microscope at 60 kV.
Detection of apoptosis in tissue sections. Cell Tissue Res. 301: 19-31] at different time intervals to study the mechanism of cell death. […] Compound 3f treated MOLT-4 cells, the condensation of the nuclear material, with a marked accumulation of densely stained chromatin was seen. In majority of the treated cells the chromatin was seen typically at the edge of the nucleus. This was accompanied by cell shrinkage and cytoplasmic vacuoles. The disintegration of the nucleus into smaller fragments was also seen (Fig. 7B). […]

O=C1c2cccc3c([N+](=O)[O-])ccc(c23)C(=O)N1CCCCl [Compound 3f, 6-Nitro-2-[3-(Chloropropyl)]-1H-benz[de]isoquinoline-1,3-dione]
Caspase-6 activity [1]: maximum at 5 µg/ml for 24 hrs
apoptotic cells by light microscopy ([2]; 1µM): no apoptotic cells were observed
apoptotic cells by light microscopy ([2]; 5µM, 24 - 48 hr): only a-few apoptotic cells were observed
apoptotic cells by light microscopy ([2]; 10µM, 36 hrs): seen in majority of cells

Source: EP2118065B1, “Substituted 1H-benz[de]isoquinoline-1,3-diones” (priority 2007, dated 2008)
